These results are taken from US20250236589A1, “THERAPEUTIC PHENETHYLAMINE COMPOSITIONS AND METHODS OF USE” (Cybin IRL Limited, priority 2022, published 2025).

Assay [1] deals with T1, 5-HT2A receptor (Homo sapiens (Human), UniProt P28223). The experiment in a line: 5-HT2A functional assay, TRUPATH (BRET). It is filed as cell-based. As to the method: (§1) After incubation, cells were lysed and fluorescence acceptor and donor were added. FRET was measured after 60 min at room temperature using a microplate reader (Envision, Perkin Elmer). TRUPATH assays followed a similar workflow, except that different reagents were used, and LiCl was not included in the samples; the protocol was based on the report by Olsen, R. H. J. et al., cited above.

The target of assay [2] is T2, 5-HT2C receptor (Homo sapiens (Human), UniProt P28335). Briefly: 5-HT2C radioligand competition binding ([3H]mesulergine or [3H]LSD).
Assay [3] deals with T3, human 5-HT2B receptor (Homo sapiens (Human), UniProt P41595). Briefly: 5-HT2B radioligand competition binding ([3H]LSD). The conditions noted are these: read-out: 5-HT2B, Ki; radioligand [3H]LSD. (In general: Loss of bound radioactivity is the signal in a displacement assay; it reports binding, not function.)
Assay [4] has as its target T1, 5-HT2A receptor. Briefly: 5-HT2A functional assay, IP1 (IPOne). It is filed as cell-based. As to the method:
as §1

Assay [5] has as its target T2, 5-HT2C receptor. Briefly: 5-HT2C functional assay, TRUPATH (BRET). It is filed as cell-based. As to the method: (§2) 5-HT2A,2B,2C receptor-mediated Gq activation—canonical signaling pathways—[phosphoinositide hydrolysis leading to the production of inositol phosphate 1 (IP1, IPOne, Cisbio assay) or direct G-protein activation using TRUPATH technology]were measured as previously described (Porter, R. H. P., Benwell, K. R., Lamb, H., Malcolm, C. S., Allen, N. F., Revell, D. F., Adams, D. R. and Sheardown, M. J., 1999, Functional characterization of agonists at recombinant human 5-HT2a, 5HT2b and 5-HT2c receptors in CHO-K1 cells, Brit J Pharmacol 128, 13; Olsen, R. H. J., DiBerto, J. F., English, J. G. et al. TRUPATH, an open-source biosensor platform for interrogating the GPCR transducerome. […] Briefly, for the IPOne assay, for 5-HT2ARs, CHO-K1 or HEK-293 cells were incubated with test articles and 5-HT (positive control) in stimulation buffer containing LiCl. After incubation, cells were lysed and fluorescence acceptor and donor were added. FRET was measured after 60 min at room temperature using a microplate reader (Envision, Perkin Elmer). TRUPATH assays followed a similar workflow, except that different reagents were used, and LiCl was not included in the samples; the protocol was based on the report by Olsen, R. H. J. et al., cited above.
(Bioluminescence resonance energy transfer reports proximity on the nanometre scale.)

In assay [6] the target is T3, human 5-HT2B receptor. The experiment in a line: 5-HT2B functional assay, IP1 (IPOne). The class given is cell-based. The note with it: IP1 assay. As to the method:
as §2

The subject of the next assay is mice. The experiment in a line: Head-twitch response (HTR) screening in mice. It is filed as in vivo, mouse. As to the method:
Protocols were followed according to Canal C E, Morgan D. Head-twitch response in rodents induced by the hallucinogen 2,5-dimethoxy-4-iodoamphetamine: a comprehensive history, a re-evaluation of mechanisms, and its utility as a model. […] Mice were housed in standard laboratory cages with ad libitum access to food and water and were acclimated to the vivarium for at least one week prior to testing in a procedure room. In a typical experiment, mice were injected 3 mg/kg of test article subcutaneously. Mice were placed immediately thereafter in a clear, polycarbonate box (46×20×20 cm), and HTRs were counted at various time points after administration using hand-held tally counters. In a separate experiment, plasma and brain samples were collected at 15 and 160 minutes after administration of test compounds to measure plasma and brain concentrations. Quantification was performed using LC-MS/MS method (LLOQ, 9 nM).

The target in assay [7] is T1, 5-HT2A receptor. The experiment in a line: 5-HT2A radioligand competition binding ([3H]LSD or [3H]ketanserin).

pEC50, pKi: −log10 of the molar value. “And” between values parts separate entries of the source, which are not always exact repeats. Equal entries are not always repeated. Where two headings read alike, the source gives them in different places. Marks after values point to notes of the source that are not given here. Some results are limits rather than exact numbers.

T2 sequence (P28335 whole entry, looked up): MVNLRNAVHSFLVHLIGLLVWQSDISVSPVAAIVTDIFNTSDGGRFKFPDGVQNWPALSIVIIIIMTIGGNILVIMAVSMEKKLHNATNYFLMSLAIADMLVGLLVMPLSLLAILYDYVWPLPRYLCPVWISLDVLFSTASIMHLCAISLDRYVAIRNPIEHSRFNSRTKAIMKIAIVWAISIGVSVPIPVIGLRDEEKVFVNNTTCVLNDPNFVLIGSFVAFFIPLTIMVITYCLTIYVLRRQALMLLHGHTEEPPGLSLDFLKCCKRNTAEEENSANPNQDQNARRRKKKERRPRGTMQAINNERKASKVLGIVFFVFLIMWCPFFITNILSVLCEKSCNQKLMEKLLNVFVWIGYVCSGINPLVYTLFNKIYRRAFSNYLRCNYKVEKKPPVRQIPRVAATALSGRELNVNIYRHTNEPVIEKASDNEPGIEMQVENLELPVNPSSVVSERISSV
T3 sequence (P41595 whole entry, looked up): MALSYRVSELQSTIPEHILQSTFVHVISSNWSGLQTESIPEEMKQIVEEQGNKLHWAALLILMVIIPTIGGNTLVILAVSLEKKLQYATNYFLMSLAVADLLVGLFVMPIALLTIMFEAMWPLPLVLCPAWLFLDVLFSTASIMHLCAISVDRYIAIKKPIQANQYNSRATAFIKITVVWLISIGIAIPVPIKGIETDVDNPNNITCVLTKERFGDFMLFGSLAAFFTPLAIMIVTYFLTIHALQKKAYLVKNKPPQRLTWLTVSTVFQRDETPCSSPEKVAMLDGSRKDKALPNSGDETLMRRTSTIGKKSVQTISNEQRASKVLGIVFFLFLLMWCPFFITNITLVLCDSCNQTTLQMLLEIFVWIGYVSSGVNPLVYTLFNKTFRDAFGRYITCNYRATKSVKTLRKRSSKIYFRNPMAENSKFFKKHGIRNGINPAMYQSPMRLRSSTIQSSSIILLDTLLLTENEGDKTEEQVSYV

One may read the pEC50 as the negative decadic logarithm of the EC50, by convention in mol/L. Broadly, the Emax is the greatest response seen or fitted, relative to the assay's reference. Broadly, the pKi is −log10 of the Ki, conventionally taken in molar units. As for `COc1cc(SC(F)(F)F)c(OC)cc1CCNCC1CC1` [Compound V-1, N-(cyclopropylmethyl)-2-(2,5-dimethoxy-4-((trifluoromethyl)thio)phenyl)ethan-1-amine], the negative logarithm of the EC50 (pEC50) is 7.55 at 5-HT2A receptor [1]; 7.46 and 7.45 on 5-HT2A receptor [4] (5-HT2A EC50, IP1 assay); 7.34 at 5-HT2C receptor [5]; under 6.00 at human 5-HT2B receptor [6] (read-out: 5-HT2B EC50). The Emax at 5-HT2A receptor [1] (TRUPATH, relative to 5-HT) worked out at 75%; on 5-HT2A receptor [4] (IP1 assay, relative to 5-HT), 31%; at 5-HT2C receptor [5] (relative to 5-HT), 92%; at human 5-HT2B receptor [6] (constrained to 100%), 100%. For the same molecule, the pKi is 7.13 at 5-HT2C receptor [2]; 9.01 at 5-HT2C receptor [2] (read-out: 5-HT2C, Ki, [3H]LSD, high-affinity active state); 7.10 at human 5-HT2B receptor [3]; 8.00 on 5-HT2A receptor [7] (read-out: 5-HT2A, Ki, radioligand [3H]LSD); 8.00 on 5-HT2A receptor [7] (read-out: 5-HT2AR affinity (Ki)). In addition, on 5-HT2A receptor [4], the “5-HT2AR agonist activity (in words)” value is given as “potent 5-HT2AR agonist”. The “HTR (in words)” value in the assay on mice (3 mg/kg) is recorded as “elicited an HTR to a much lower extent than DOI”. Moreover, the “HTR 15-25 min” value in the assay on mice (calculated using 0-30 min) is reported as 3 ####. For the same molecule, the “HTR 160-170 min” value in the assay with mice (mice, 3 mg/kg s.c.) came to 4.42.
